# Data from patent US7064139B2, “Method for treating retroviral infections” (Uniroyal Chemical Company, Inc., priority 2001, dated 2006).
# System: HIV-1 (IIIB)
# Assay: microbe, parasite or virus in culture
# Format: cell-based
# Conditions: CEM cells, syncytium formation, day four post infection
# Summary of the method: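 Human T-lymphoblast CEM cells at roughly 300,000 cells per ml were infected with about 100 CCID50 of HIV-1 (IIIB). Then 100 μl of the infected suspension went into 200 μl microtiter wells holding 100 μl of 5-fold serial compound dilutions. Inhibition of syncytium formation was scored microscopically on day four post infection, and protection against virus-induced cytopathicity was recorded.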
row,SMILES,EC50 (ug/ml) HIV-1
1,Cc1ccc(C)c(C(C)[S+]([O-])c2ccccn2)c1 (stereo not drawn) [Compound 163],3.25 µg/mL
2,O=S(=O)(Cc1ccc(CS(=O)(=O)c2cccc[n+]2[O-])cc1)c1cccc[n+]1[O-] [Compound 23],≧20 ug/ml
3,Cc1ccc[n+]([O-])c1S(=O)(=O)Cc1c(Cl)cccc1Cl [Compound 139],>20 µg/mL
4,Cc1ccc(C)c(C(Cl)S(=O)(=O)c2c(Cl)ccc[n+]2[O-])c1 (stereo not drawn) [Compound 125],>4 µg/mL
5,Cc1ccc(C[S+]([O-])c2cccc[n+]2[O-])cc1 (stereo not drawn) [Compound 91],>4 µg/mL
6,Cc1ccc(CS(=O)(=O)c2cccc[n+]2[O-])cc1 [Compound 11],13.00 µg/mL
7,O=S(=O)(Cc1c(Cl)ccc(Cl)c1Cl)c1cccc[n+]1[O-] [Compound 33],≧4 ug/ml
8,Cc1ccc[n+]([O-])c1S(=O)(=O)C(C)c1ccccc1Cl (stereo not drawn) [Compound 120],3.30 µg/mL
9,COc1cc(CS(=O)(=O)c2cccc[n+]2[O-])cc(OC)c1OC [Compound 50],≧20 ug/ml

# Same assay, conditions: Human immunodeficiency virus 1, IIIB, CCRF-CEM; CEM cells, syncytium formation, day four post infection; read-out: EC50 (ug/ml) HIV-1
row,SMILES,EC50
1,"O=S(=O)(Cc1c(Cl)c(Cl)c(Cl)c(Cl)c1Cl)c1cccc[n+]1[O-] [Compound 32, 2-(Pentachlorobenzylsulfonyl)-pyridine-N-oxide]",0.63 µg/mL
2,"O=[N+]([O-])c1cc(CS(=O)(=O)c2cccc[n+]2[O-])ccc1Cl [Compound 64, 2-[[(4-chloro-3-nitrophenyl)methyl]sulfonyl]-pyridine-1-oxide]",1.5 µg/mL
3,"Cc1ccc(C)c(C(C)S(=O)(=O)c2cccc[n+]2[O-])c1 (stereo not drawn) [Compound 9, 2-(1-[2,5-Dimethylphenyl]ethylsulfonyl)pyridine N-oxide]",≥ 100 µg/mL
4,"Cc1ccc(C)c(C(C)S(=O)(=O)c2c(C)ccc[n+]2[O-])c1 (stereo not drawn) [Compound 71, 2-[1-(2,5-Dimethylphenyl)ethylsulfonyl]-3-methylpyridine N-oxide]",0.05 µg/mL
5,"Cc1ccc(C)c(C[S+]([O-])c2cccc[n+]2[O-])c1C (stereo not drawn) [Compound 97, 2-(2,3,6-Trimethylphenylmethylsulfinyl)pyridine N-oxide]",> 0.8 µg/mL

# Same assay, conditions: protection of CEM cells against virus-induced cytopathicity at the concentration in the previous column
row,SMILES,HIV-1 % Protection
1,"Cc1ccc(C)c(C(C)S(=O)(=O)c2cccc[n+]2[O-])c1 (stereo not drawn) [Compound 9, 2-(1-[2,5-Dimethylphenyl]ethylsulfonyl)pyridine N-oxide]",37.5%
2,O=S(=O)(Cc1ccc(CS(=O)(=O)c2cccc[n+]2[O-])cc1)c1cccc[n+]1[O-] [Compound 23],37.5%
3,Cc1ccc[n+]([O-])c1S(=O)(=O)Cc1c(Cl)cccc1Cl [Compound 139],0.0%
4,Cc1ccc(C)c(C(Cl)S(=O)(=O)c2c(Cl)ccc[n+]2[O-])c1 (stereo not drawn) [Compound 125],0.0%
5,Cc1ccc(C[S+]([O-])c2cccc[n+]2[O-])cc1 (stereo not drawn) [Compound 91],0.0%
6,O=S(=O)(Cc1c(Cl)ccc(Cl)c1Cl)c1cccc[n+]1[O-] [Compound 33],37.5%
7,"Cc1ccc(C)c(C[S+]([O-])c2cccc[n+]2[O-])c1C (stereo not drawn) [Compound 97, 2-(2,3,6-Trimethylphenylmethylsulfinyl)pyridine N-oxide]",0.0%
8,COc1cc(CS(=O)(=O)c2cccc[n+]2[O-])cc(OC)c1OC [Compound 50],37.5%

# System: HIV-2 (ROD)
# Assay: Inhibition of HIV-2 syncytium formation in CEM cells
# Format: cell-based
# Conditions: CEM cells, syncytium formation, day four post infection
# Summary of the method: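 Human T-lymphoblast CEM cells, suspended at roughly 300,000 cells per ml of culture medium, were infected with about 100 CCID50 of HIV-2 (ROD). Aliquots of 100 μl of infected cells were placed in 200 μl microtiter wells holding 100 μl of serial 5-fold compound dilutions, and syncytium formation was scored microscopically four days after infection.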
row,SMILES,EC50 (ug/ml) HIV-2
1,Cc1ccc(C)c(C(C)[S+]([O-])c2ccccn2)c1 (stereo not drawn) [Compound 163],>100 µg/mL
2,O=S(=O)(Cc1ccc(CS(=O)(=O)c2cccc[n+]2[O-])cc1)c1cccc[n+]1[O-] [Compound 23],≧20 ug/ml
3,Cc1ccc[n+]([O-])c1S(=O)(=O)Cc1c(Cl)cccc1Cl [Compound 139],>20.00 µg/mL
4,Cc1ccc(C)c(C(Cl)S(=O)(=O)c2c(Cl)ccc[n+]2[O-])c1 (stereo not drawn) [Compound 125],>4.0 µg/mL
5,Cc1ccc(C[S+]([O-])c2cccc[n+]2[O-])cc1 (stereo not drawn) [Compound 91],>4.0 µg/mL
6,Cc1ccc(CS(=O)(=O)c2cccc[n+]2[O-])cc1 [Compound 11],10.0 µg/mL
7,O=S(=O)(Cc1c(Cl)ccc(Cl)c1Cl)c1cccc[n+]1[O-] [Compound 33],≧4 ug/ml
8,Cc1ccc[n+]([O-])c1S(=O)(=O)C(C)c1ccccc1Cl (stereo not drawn) [Compound 120],>20.00 µg/mL
9,COc1cc(CS(=O)(=O)c2cccc[n+]2[O-])cc(OC)c1OC [Compound 50],≧20 ug/ml

# Same assay, conditions: Human immunodeficiency virus 2, CCRF-CEM, read-out: EC50 (ug/ml) HIV-2
row,SMILES,EC50
1,"O=S(=O)(Cc1c(Cl)c(Cl)c(Cl)c(Cl)c1Cl)c1cccc[n+]1[O-] [Compound 32, 2-(Pentachlorobenzylsulfonyl)-pyridine-N-oxide]",1 µg/mL

# Same assay, conditions: Human immunodeficiency virus 2, CCRF-CEM; CEM cells, syncytium formation, day four post infection; read-out: EC50 (ug/ml) HIV-2
row,SMILES,EC50
1,"O=[N+]([O-])c1cc(CS(=O)(=O)c2cccc[n+]2[O-])ccc1Cl [Compound 64, 2-[[(4-chloro-3-nitrophenyl)methyl]sulfonyl]-pyridine-1-oxide]",1.9 µg/mL
2,"Cc1ccc(C)c(C(C)S(=O)(=O)c2cccc[n+]2[O-])c1 (stereo not drawn) [Compound 9, 2-(1-[2,5-Dimethylphenyl]ethylsulfonyl)pyridine N-oxide]",> 100 µg/mL
3,"Cc1ccc(C)c(C(C)S(=O)(=O)c2c(C)ccc[n+]2[O-])c1 (stereo not drawn) [Compound 71, 2-[1-(2,5-Dimethylphenyl)ethylsulfonyl]-3-methylpyridine N-oxide]",> 20 µg/mL
4,"Cc1ccc(C)c(C[S+]([O-])c2cccc[n+]2[O-])c1C (stereo not drawn) [Compound 97, 2-(2,3,6-Trimethylphenylmethylsulfinyl)pyridine N-oxide]",> 0.8 µg/mL

# Same assay, conditions: protection of CEM cells against virus-induced cytopathicity at the concentration in the previous column
row,SMILES,HIV-2 % Protection
1,"Cc1ccc(C)c(C(C)S(=O)(=O)c2cccc[n+]2[O-])c1 (stereo not drawn) [Compound 9, 2-(1-[2,5-Dimethylphenyl]ethylsulfonyl)pyridine N-oxide]",0.0%
2,"Cc1ccc(C)c(C(C)S(=O)(=O)c2c(C)ccc[n+]2[O-])c1 (stereo not drawn) [Compound 71, 2-[1-(2,5-Dimethylphenyl)ethylsulfonyl]-3-methylpyridine N-oxide]",0.0%
3,Cc1ccc(C)c(C(C)[S+]([O-])c2ccccn2)c1 (stereo not drawn) [Compound 163],0.0%
4,O=S(=O)(Cc1ccc(CS(=O)(=O)c2cccc[n+]2[O-])cc1)c1cccc[n+]1[O-] [Compound 23],37.5%
5,Cc1ccc[n+]([O-])c1S(=O)(=O)Cc1c(Cl)cccc1Cl [Compound 139],0.0%
6,Cc1ccc(C)c(C(Cl)S(=O)(=O)c2c(Cl)ccc[n+]2[O-])c1 (stereo not drawn) [Compound 125],0.0%
7,Cc1ccc(C[S+]([O-])c2cccc[n+]2[O-])cc1 (stereo not drawn) [Compound 91],0.0%
8,O=S(=O)(Cc1c(Cl)ccc(Cl)c1Cl)c1cccc[n+]1[O-] [Compound 33],37.5%
9,"Cc1ccc(C)c(C[S+]([O-])c2cccc[n+]2[O-])c1C (stereo not drawn) [Compound 97, 2-(2,3,6-Trimethylphenylmethylsulfinyl)pyridine N-oxide]",0.0%
10,Cc1ccc[n+]([O-])c1S(=O)(=O)C(C)c1ccccc1Cl (stereo not drawn) [Compound 120],0.0%
11,COc1cc(CS(=O)(=O)c2cccc[n+]2[O-])cc(OC)c1OC [Compound 50],37.5%

# System: Davis strain CMV
# Assay: Reduction of CMV-induced cytopathicity in HEL cells
# Format: cell-based, human cytomegalovirus (HCMV)
# Conditions: HEL cells, estimate of percent protection at the concentration in the previous column
# Summary of the method: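 Confluent HEL cells were infected with 100 PFU/well CMV for 1–2 h, then washed and kept in MEM with 2% FCS and test compound. EC50 is the concentration cutting virus-induced cytopathicity by 50% versus untreated control at day 7. Where cytotoxicity interfered, percent protection at the stated concentration is given.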
row,SMILES,Antiviral % Inhibition Davis strain CMV
1,"O=[N+]([O-])c1cc(CS(=O)(=O)c2cccc[n+]2[O-])ccc1Cl [Compound 64, 2-[[(4-chloro-3-nitrophenyl)methyl]sulfonyl]-pyridine-1-oxide]",10.0%
2,"Cc1ccc(C)c(C(C)S(=O)(=O)c2cccc[n+]2[O-])c1 (stereo not drawn) [Compound 9, 2-(1-[2,5-Dimethylphenyl]ethylsulfonyl)pyridine N-oxide]",0.0%
3,Cc1ccc(C)c(C(C)[S+]([O-])c2ccccn2)c1 (stereo not drawn) [Compound 163],0.0%
4,O=S(=O)(Cc1ccc(CS(=O)(=O)c2cccc[n+]2[O-])cc1)c1cccc[n+]1[O-] [Compound 23],20.0%
5,COc1cc(CS(=O)(=O)c2cccc[n+]2[O-])cc(OC)c1OC [Compound 50],20.0%

# Same assay, conditions: HEL cells, virus-induced cytopathicity after seven days
row,SMILES,Antiviral EC50 (ug/ml) Davis strain CMV
1,Cc1ccc(C)c(C(C)[S+]([O-])c2ccccn2)c1 (stereo not drawn) [Compound 163],>50 µg/mL
2,O=S(=O)(Cc1ccc(CS(=O)(=O)c2cccc[n+]2[O-])cc1)c1cccc[n+]1[O-] [Compound 23],>20 µg/mL
3,Cc1ccc[n+]([O-])c1S(=O)(=O)Cc1c(Cl)cccc1Cl [Compound 139],43.0 µg/mL
4,Cc1ccc(C)c(C(Cl)S(=O)(=O)c2c(Cl)ccc[n+]2[O-])c1 (stereo not drawn) [Compound 125],31.5 µg/mL
5,Cc1ccc(C[S+]([O-])c2cccc[n+]2[O-])cc1 (stereo not drawn) [Compound 91],34.5 µg/mL
6,Cc1ccc(CS(=O)(=O)c2cccc[n+]2[O-])cc1 [Compound 11],29.0 µg/mL
7,O=S(=O)(Cc1c(Cl)ccc(Cl)c1Cl)c1cccc[n+]1[O-] [Compound 33],5.0 µg/mL
8,Cc1ccc[n+]([O-])c1S(=O)(=O)C(C)c1ccccc1Cl (stereo not drawn) [Compound 120],12.5 µg/mL
9,COc1cc(CS(=O)(=O)c2cccc[n+]2[O-])cc(OC)c1OC [Compound 50],>50 µg/mL

# Same assay, conditions: Human betaherpesvirus 5, 168 h; HEL cells, virus-induced cytopathicity after seven days; read-out: Antiviral EC50 (ug/ml) Davis strain CMV
row,SMILES,EC50
1,"O=[N+]([O-])c1cc(CS(=O)(=O)c2cccc[n+]2[O-])ccc1Cl [Compound 64, 2-[[(4-chloro-3-nitrophenyl)methyl]sulfonyl]-pyridine-1-oxide]",> 5 µg/mL
2,"Cc1ccc(C)c(C(C)S(=O)(=O)c2cccc[n+]2[O-])c1 (stereo not drawn) [Compound 9, 2-(1-[2,5-Dimethylphenyl]ethylsulfonyl)pyridine N-oxide]",> 50 µg/mL
3,"Cc1ccc(C)c(C(C)S(=O)(=O)c2c(C)ccc[n+]2[O-])c1 (stereo not drawn) [Compound 71, 2-[1-(2,5-Dimethylphenyl)ethylsulfonyl]-3-methylpyridine N-oxide]",3.2 µg/mL
4,"Cc1ccc(C)c(C[S+]([O-])c2cccc[n+]2[O-])c1C (stereo not drawn) [Compound 97, 2-(2,3,6-Trimethylphenylmethylsulfinyl)pyridine N-oxide]",11 µg/mL

# Same assay, conditions: Human betaherpesvirus 5, HEL, 168 h, read-out: Antiviral EC50 (ug/ml) Davis strain CMV
row,SMILES,EC50
1,"O=S(=O)(Cc1c(Cl)c(Cl)c(Cl)c(Cl)c1Cl)c1cccc[n+]1[O-] [Compound 32, 2-(Pentachlorobenzylsulfonyl)-pyridine-N-oxide]",14 µg/mL
